From ChEMBL document CHEMBL4507319 (2021)

Tests used:
Conditions in all cases: Compound concentration 1000.0 nM
[1] = test system: Epidermal growth factor receptor (Homo sapiens), P00533 [L858R]
[2] = biological target: Interleukin-1 receptor-associated kinase 3 (Homo sapiens) (UniProt Q9Y616)
[3] = biological target: Rho-associated protein kinase 2 (Homo sapiens) (UniProt O75116)
[4] = biological target: Serine/threonine-protein kinase PAK 3 (Homo sapiens) (UniProt O75914)
[5] = test system: Tyrosine-protein kinase ABL1 (Homo sapiens), P00519 [F317I]
Chain of Tyrosine-protein kinase ABL1 (Homo sapiens), P00519 [F317I] (P00519 whole entry F317I): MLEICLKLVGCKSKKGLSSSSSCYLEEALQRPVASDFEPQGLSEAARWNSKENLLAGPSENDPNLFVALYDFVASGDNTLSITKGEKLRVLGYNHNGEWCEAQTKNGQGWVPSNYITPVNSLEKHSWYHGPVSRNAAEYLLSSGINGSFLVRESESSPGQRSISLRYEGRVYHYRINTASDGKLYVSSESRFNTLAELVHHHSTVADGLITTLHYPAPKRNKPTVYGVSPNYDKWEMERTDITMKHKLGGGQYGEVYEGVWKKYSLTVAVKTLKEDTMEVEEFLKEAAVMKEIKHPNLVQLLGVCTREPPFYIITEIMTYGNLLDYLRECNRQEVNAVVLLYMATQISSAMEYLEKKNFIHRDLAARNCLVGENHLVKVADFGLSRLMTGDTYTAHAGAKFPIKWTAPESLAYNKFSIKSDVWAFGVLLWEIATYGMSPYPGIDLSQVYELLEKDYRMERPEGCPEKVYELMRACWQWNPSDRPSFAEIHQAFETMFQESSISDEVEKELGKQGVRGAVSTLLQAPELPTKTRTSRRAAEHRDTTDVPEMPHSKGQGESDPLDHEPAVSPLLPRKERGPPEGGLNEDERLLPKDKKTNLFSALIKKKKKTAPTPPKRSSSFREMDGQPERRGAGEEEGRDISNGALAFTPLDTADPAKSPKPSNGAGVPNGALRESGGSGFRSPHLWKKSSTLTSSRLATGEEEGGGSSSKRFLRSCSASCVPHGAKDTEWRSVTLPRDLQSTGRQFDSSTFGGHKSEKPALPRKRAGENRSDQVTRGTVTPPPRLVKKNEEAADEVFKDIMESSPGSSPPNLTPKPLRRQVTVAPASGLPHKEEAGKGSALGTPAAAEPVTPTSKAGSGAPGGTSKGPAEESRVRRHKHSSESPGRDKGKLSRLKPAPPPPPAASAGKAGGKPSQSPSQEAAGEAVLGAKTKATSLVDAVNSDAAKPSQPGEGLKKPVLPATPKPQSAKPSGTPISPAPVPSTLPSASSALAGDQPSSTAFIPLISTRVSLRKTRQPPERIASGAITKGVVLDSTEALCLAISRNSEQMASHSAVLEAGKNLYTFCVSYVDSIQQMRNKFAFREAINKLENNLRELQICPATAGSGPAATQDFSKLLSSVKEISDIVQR

[6] = biological target: Cyclin-dependent kinase-like 2 (Homo sapiens) (UniProt Q92772)
Chain of Cyclin-dependent kinase-like 2 (Homo sapiens) (Q92772 whole entry): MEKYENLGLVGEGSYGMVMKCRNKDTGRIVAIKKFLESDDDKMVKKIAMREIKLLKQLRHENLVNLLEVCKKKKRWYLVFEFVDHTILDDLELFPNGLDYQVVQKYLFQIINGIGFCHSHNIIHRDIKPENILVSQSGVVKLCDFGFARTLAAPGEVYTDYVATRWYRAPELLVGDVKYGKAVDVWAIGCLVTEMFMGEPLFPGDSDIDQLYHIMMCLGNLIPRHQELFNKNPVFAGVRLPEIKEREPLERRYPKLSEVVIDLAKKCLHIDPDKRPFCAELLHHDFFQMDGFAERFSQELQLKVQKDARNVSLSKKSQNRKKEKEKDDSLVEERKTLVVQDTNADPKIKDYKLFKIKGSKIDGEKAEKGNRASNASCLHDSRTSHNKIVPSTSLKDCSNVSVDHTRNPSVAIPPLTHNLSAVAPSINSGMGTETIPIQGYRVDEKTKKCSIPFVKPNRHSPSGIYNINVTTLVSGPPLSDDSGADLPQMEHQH

[7] = biological target: Serine/threonine-protein kinase MRCK gamma (Homo sapiens) (UniProt Q6DT37)
[8] = biological target: MAP kinase-interacting serine/threonine-protein kinase 1 (Homo sapiens) (UniProt Q9BUB5)
Chain of MAP kinase-interacting serine/threonine-protein kinase 1 (Homo sapiens) (Q9BUB5 whole entry, looked up): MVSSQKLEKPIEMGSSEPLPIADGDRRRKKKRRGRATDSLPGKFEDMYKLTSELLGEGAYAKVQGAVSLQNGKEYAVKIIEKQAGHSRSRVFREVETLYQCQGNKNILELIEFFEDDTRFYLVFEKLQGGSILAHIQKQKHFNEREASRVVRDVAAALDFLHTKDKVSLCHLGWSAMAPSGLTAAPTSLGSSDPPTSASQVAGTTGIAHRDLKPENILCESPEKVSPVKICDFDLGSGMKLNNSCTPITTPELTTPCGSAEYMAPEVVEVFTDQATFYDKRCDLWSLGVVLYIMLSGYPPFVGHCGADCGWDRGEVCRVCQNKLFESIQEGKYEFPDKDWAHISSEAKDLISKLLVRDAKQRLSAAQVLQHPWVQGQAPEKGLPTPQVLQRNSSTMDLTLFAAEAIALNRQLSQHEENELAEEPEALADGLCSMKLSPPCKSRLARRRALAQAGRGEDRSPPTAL

[9] = biological target: T1, Serine/threonine-protein kinase ULK1 (Homo sapiens) (UniProt O75385)
T1 sequence (whole entry): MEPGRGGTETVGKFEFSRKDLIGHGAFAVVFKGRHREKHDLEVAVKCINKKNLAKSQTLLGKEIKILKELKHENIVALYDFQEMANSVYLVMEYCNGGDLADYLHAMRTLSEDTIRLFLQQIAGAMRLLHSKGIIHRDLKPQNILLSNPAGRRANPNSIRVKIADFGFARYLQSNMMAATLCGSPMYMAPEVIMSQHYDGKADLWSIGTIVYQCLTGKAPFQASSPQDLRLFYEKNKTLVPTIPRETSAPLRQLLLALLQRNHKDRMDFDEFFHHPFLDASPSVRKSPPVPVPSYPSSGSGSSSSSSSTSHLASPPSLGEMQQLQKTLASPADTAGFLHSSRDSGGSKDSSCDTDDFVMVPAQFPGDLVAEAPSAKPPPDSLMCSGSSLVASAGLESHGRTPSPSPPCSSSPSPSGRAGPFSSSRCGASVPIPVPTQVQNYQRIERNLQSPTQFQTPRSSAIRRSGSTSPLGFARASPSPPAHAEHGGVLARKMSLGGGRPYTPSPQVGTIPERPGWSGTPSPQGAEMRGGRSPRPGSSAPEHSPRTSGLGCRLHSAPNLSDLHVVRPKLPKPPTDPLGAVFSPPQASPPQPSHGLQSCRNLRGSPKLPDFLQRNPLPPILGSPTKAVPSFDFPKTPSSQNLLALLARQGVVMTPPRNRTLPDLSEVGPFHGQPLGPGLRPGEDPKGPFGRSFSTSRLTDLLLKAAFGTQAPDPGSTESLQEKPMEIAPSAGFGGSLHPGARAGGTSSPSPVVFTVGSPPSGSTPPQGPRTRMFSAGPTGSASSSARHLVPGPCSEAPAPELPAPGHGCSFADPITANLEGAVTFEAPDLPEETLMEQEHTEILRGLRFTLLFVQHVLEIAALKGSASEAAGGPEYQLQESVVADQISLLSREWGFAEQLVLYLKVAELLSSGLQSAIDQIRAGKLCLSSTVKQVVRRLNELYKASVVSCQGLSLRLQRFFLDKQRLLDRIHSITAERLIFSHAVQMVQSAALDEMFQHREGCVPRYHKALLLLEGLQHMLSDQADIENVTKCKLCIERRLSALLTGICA

[10] = biological target: Receptor tyrosine-protein kinase erbB-2 (Homo sapiens) (UniProt P04626)
Chain of Receptor tyrosine-protein kinase erbB-2 (Homo sapiens) (P04626 whole entry): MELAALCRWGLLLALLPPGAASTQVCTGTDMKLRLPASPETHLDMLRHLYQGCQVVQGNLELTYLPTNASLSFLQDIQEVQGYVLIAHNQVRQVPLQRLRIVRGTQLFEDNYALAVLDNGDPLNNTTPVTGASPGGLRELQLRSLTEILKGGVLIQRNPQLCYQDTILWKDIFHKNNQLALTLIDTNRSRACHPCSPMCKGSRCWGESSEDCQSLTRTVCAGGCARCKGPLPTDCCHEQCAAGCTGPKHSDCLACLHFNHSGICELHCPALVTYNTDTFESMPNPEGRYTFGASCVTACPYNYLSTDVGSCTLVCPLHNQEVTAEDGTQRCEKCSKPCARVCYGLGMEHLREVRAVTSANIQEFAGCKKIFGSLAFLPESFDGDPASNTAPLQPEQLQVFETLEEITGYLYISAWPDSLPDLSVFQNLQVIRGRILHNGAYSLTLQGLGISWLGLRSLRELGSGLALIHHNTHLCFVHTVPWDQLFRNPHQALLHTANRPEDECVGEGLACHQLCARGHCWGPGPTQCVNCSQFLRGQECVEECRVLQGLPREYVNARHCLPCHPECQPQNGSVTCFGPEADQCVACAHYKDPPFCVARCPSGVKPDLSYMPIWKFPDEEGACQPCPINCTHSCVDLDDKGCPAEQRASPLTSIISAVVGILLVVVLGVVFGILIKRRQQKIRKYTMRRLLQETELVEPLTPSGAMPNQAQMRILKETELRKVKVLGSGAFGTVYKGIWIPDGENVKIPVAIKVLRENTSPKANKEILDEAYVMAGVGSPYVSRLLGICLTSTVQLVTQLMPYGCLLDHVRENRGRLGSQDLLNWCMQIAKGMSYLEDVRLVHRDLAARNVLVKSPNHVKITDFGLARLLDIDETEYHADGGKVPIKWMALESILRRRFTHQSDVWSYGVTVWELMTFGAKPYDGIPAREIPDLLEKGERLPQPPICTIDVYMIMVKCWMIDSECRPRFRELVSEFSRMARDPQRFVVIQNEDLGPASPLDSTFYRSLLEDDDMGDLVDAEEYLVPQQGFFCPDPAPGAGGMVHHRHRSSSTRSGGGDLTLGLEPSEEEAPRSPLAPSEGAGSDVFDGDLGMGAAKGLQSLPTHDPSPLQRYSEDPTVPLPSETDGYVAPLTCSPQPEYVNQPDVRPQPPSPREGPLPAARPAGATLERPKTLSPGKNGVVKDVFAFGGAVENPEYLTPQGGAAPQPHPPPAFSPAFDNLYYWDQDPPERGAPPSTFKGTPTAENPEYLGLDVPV

[11] = biological target: Mitogen-activated protein kinase kinase kinase kinase 1 (Homo sapiens) (UniProt Q92918)
Chain of Mitogen-activated protein kinase kinase kinase kinase 1 (Homo sapiens) (Q92918 whole entry, looked up): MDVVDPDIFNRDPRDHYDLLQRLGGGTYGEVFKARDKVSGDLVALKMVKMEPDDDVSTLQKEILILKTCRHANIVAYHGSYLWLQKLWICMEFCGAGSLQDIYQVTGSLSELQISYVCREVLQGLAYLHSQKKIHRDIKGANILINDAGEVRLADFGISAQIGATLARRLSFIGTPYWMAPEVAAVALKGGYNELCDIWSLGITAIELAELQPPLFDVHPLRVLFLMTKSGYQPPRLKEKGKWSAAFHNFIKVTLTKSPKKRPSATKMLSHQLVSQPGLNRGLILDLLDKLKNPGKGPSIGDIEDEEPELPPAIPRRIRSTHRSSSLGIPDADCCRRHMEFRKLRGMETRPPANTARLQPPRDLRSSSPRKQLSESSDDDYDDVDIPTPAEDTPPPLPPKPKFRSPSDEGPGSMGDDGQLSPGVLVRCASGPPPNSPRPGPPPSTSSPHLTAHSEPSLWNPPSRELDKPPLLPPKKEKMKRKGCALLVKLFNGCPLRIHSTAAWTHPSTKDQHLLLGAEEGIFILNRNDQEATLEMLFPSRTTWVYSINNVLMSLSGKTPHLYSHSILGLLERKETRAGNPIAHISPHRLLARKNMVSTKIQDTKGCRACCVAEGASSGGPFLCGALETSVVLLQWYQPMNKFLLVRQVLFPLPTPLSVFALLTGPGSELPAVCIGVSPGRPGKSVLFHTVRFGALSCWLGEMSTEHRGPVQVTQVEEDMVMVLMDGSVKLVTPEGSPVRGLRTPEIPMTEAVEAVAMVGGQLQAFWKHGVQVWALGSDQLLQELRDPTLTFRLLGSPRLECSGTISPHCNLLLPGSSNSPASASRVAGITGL

[12] = biological target: Tyrosine-protein kinase SYK (Homo sapiens) (UniProt P43405)
[13] = biological target: T2, SNF-related serine/threonine-protein kinase (Homo sapiens) (UniProt Q9NRH2)
T2 sequence (whole entry): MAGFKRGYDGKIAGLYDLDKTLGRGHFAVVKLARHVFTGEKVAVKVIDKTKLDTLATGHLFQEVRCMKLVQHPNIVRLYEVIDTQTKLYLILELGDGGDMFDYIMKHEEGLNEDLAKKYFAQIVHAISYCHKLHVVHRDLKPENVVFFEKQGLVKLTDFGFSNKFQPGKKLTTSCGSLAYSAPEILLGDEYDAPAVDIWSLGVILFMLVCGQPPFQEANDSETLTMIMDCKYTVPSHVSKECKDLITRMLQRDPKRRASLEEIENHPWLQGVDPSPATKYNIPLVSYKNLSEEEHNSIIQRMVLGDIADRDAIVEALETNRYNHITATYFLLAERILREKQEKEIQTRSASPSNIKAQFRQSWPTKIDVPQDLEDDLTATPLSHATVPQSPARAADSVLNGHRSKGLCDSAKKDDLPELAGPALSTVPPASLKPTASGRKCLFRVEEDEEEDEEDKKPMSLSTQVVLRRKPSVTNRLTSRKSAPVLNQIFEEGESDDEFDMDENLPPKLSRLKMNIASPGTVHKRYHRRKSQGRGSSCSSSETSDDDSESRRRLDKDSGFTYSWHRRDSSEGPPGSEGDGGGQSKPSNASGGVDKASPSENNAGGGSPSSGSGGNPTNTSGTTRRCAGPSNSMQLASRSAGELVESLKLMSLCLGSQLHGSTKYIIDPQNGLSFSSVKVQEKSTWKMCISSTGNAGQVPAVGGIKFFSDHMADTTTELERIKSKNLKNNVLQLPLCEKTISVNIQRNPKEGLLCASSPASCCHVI

Chain of Interleukin-1 receptor-associated kinase 3 (Homo sapiens) (Q9Y616 whole entry): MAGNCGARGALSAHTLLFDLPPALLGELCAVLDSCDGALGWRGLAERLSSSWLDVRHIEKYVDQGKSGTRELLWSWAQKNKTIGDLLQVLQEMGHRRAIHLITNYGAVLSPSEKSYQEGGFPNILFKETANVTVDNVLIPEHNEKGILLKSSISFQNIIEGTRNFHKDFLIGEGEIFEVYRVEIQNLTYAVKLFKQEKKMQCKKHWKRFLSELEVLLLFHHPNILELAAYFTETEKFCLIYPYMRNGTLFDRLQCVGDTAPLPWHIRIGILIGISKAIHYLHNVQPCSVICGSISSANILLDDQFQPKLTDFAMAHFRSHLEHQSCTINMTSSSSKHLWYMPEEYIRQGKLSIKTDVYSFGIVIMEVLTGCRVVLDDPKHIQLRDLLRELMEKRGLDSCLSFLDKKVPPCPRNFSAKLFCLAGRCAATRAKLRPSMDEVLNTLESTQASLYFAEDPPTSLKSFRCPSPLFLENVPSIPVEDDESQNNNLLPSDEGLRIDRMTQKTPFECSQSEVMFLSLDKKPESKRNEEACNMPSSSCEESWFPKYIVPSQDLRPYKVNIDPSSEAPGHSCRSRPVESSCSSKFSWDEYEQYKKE

SMILES	residual activity [1]	residual activity [2]	residual activity [3]	residual activity [4]	residual activity [5]	residual activity [6]	residual activity [7]	residual activity [8]	residual activity [9]	residual activity [10]	residual activity [11]	residual activity [12]	residual activity [13]
CCc1ccccc1C(=O)Nc1n[nH]c2c(C)c(F)c(C3C(C#N)=C(C)N(C)C(C)=C3C#N)cc12 [BAY-3827]	93%	98%	100%	86%	100%	94%	93%	100%	29%	71%	73%	100%	100%
CC1=C(C#N)C(c2ccc3c(c2)c(NC(=O)c2ccccc2C)nn3C)C(C#N)=C(C)N1 [BAY-974]	80%	79%	93%	67%	78%	100%	92%	70%	86%	86%	81%	100%	100%
